Activity calls are given as the source filed them. How the calls were made is not given here.
The compounds below were run against Peptidyl-prolyl cis-trans isomerase FKBP1A (Homo sapiens) (UniProt P62942) (assay: FKBP12 binders, biophysical, NMR detection (AID 608)). Conditions: NMR binding, purified FKBP12.
Peptidyl-prolyl cis-trans isomerase FKBP1A (Homo sapiens), sequence (P62942 whole entry, looked up): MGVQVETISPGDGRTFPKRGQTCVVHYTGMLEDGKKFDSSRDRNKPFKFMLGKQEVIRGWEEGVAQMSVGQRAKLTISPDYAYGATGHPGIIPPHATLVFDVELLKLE

SMILES | Kd
CC(=O)OCC[C@H](C)CCC=C(C)C | > 4 mM (inactive)
Cc1ccc(F)cc1NC(=O)c1ccc2c(c1)OCO2 | > 4 mM (inactive)
CC(=O)Oc1cc(-c2coc3cc(OC(C)=O)c(OC(C)=O)c(OC(C)=O)c3c2=O)cc(OC(C)=O)c1OC(C)=O | > 4 mM (inactive)
CCOC(=O)CNc1ncnc2c1nnn2CC | > 4 mM (inactive)
O=C(CNC(=O)c1cccs1)NC1=NCCS1 | > 4 mM (inactive)
O=C(C(Sc1ccccc1)c1ccccc1)N1CCOCC1 (stereo not drawn) | 0.146 mM
O=C(NC(=S)NCc1cccnc1)c1ccco1 | > 4 mM (inactive)
NC(=O)CSc1nnc2ccc(-c3ccccn3)nn12 | > 4 mM (inactive)
Nc1ccc(-n2cccn2)cc1 | > 4 mM (inactive)
COc1cccc(-c2csc(NC(C)=O)n2)c1 | > 4 mM (inactive)
COc1c(-c2coc3cc4c(cc3c2=O)CC(OC(C)=O)C(C)(C)O4)ccc2c1C=CC(C)(C)O2 (stereo not drawn) | > 4 mM (inactive)
CCC(C)C(=O)O[C@@H]1C[C@@]2(C)[C@H](c3ccoc3)OC(=O)CC23OC2(C)OC34[C@H](OC(=O)C(C)C)[C@@]3(O)[C@@H](OC(=O)C5(C)OC5C)[C@@]5(C)C[C@]3(O)[C@@](C)([C@H]5CC(=O)OC)C14O2 (stereo partly drawn) | > 4 mM (inactive)
CC(=O)O[C@@H]1CC2C(C)(C)[C@H](O)C[C@H](O)[C@]2(C)C2CC[C@@]3(C)C(=CC(=O)O[C@H]3c3ccoc3)[C@@]21C (stereo partly drawn) | > 4 mM (inactive)
Cc1nc2nc(Cc3ccccc3)nn2c(C)c1Cl | > 4 mM (inactive)
CC(=O)Nc1ccccc1-c1ccccc1NC(C)=O | > 4 mM (inactive)
CSc1n[nH]c(NCc2ccccc2)n1 | > 4 mM (inactive)
c1cncc(-c2nnc(-c3cccnc3)nn2)c1 | > 4 mM (inactive)
c1cc2n(c1)CCNC2c1ccncc1 (stereo not drawn) | > 4 mM (inactive)
NC(=O)C1CC2C=CC1C2 (stereo not drawn) | > 4 mM (inactive)
CC(=O)OC1CCC2(O)CC1(C)CCC1C2CC1(C)C (stereo not drawn) | > 4 mM (inactive)

SMILES | Kd
c1ccc2c(c1)nc(-c1cscn1)n2CCCCc1nn[nH]n1 | inactive
S=c1nc(Cc2ccccc2)[nH][nH]1 | > 4 mM (inactive)
COc1cccc(NC(=O)c2ncn[nH]2)c1 | > 4 mM (inactive)
N#Cc1nc(-c2ccccc2Cl)oc1N1CCOCC1 | > 4 mM (inactive)
CN1C2CC3C[C@H]1C(O3)C2O (stereo partly drawn) | > 4 mM (inactive)
C=C1C(=O)O[C@@H]2C3OC3(C)CC/C=C(\C)CC[C@@H]12 (stereo partly drawn) | > 4 mM (inactive)
CC(=O)Nc1cccc(N(C)S(C)(=O)=O)c1 | > 4 mM (inactive)
COc1cc(-c2coc3cc(OCc4ccccc4)c(OC)c(O)c3c2=O)cc(O)c1OC | > 4 mM (inactive)
O=C(/C=C1\SC(=O)NC1=O)NCc1ccccc1 | > 4 mM (inactive)
O=c1c(Cl)c(NCCO)ncn1-c1ccccc1 | > 4 mM (inactive)
Cc1cc(C)n(C2CCS(=O)(=O)C2)n1 (stereo not drawn) | > 4 mM (inactive)
Cc1cc(C(=O)NCc2cccs2)cs1 | > 4 mM (inactive)
COC(=O)Nc1c(C)n(C)n(-c2ccccc2)c1=O | > 4 mM (inactive)
O=C1NC2NC(=O)N(c3ccccc3)C2N1 (stereo not drawn) | > 4 mM (inactive)
O=C(NCCO)c1ccccc1I | > 4 mM (inactive)
Cc1ccc(S(=O)(=O)/N=C2\NC(=O)CS2)cc1 | > 4 mM (inactive)
OC[C@H]1O[C@@H](Oc2ccc(O)cc2)[C@H](O)[C@@H](O)[C@@H]1O | > 4 mM (inactive)
COc1cc(CNCCc2ccc(S(N)(=O)=O)cc2)ccc1OCC(=O)N1CCOCC1 | > 4 mM (inactive)
O=C(/C=C/c1ccco1)NC1=NCCS1 | > 4 mM (inactive)
Cc1[nH]c2ccccc2c1C(=O)CSc1ncn[nH]1 | > 4 mM (inactive)

SMILES | Kd
COc1ccc2c(c1)OC1(O)COc3cc(OC)c(OC)cc3C1=C2 (stereo not drawn) | > 4 mM (inactive)
COc1ccc2ccc(=O)oc2c1CC=C(C)C | > 4 mM (inactive)
Oc1ccccc1-c1nnco1 | > 4 mM (inactive)
S=C(Nc1ccccc1)Nc1nncs1 | > 4 mM (inactive)
NC(=O)CSc1nc2ncnc(N)c2[nH]1 | > 4 mM (inactive)
CN1CCN(c2ccc(N)cc2)CC1 | > 4 mM (inactive)
Cc1nc2ccccc2c(=O)n1CCCO | > 4 mM (inactive)
O=C(O)/C=C/C(=O)Nc1ccccc1C(F)(F)F | > 4 mM (inactive)
O=S(=O)(O)c1cc[n+]([O-])cc1 | > 4 mM (inactive)
CN1CCN(C(=O)c2ccccc2N)CC1 | > 4 mM (inactive)
Cc1cc(C(=O)Nc2ccon2)cs1 | > 4 mM (inactive)
C[C@H]1[C@H](C)CC[C@]2(CO)CC[C@]3(C)C(=CCC4[C@@]5(C)CC[C@H](O)C(C)(C)C5CC[C@]43C)[C@H]12 (stereo partly drawn) | > 4 mM (inactive)
NC(=O)CSc1ncnc2ccccc12 | > 4 mM (inactive)
CC1(C)C2CC[C@]3(C)C(C(=O)C=C4[C@@H]5C[C@@](C)(C(=O)O)CC[C@]5(C)CC[C@]43C)[C@@]2(C)CC[C@@H]1O (stereo partly drawn) | > 4 mM (inactive)
O=C1O[C@H](C(O)CO)C(O)=C1O (stereo partly drawn) | > 4 mM (inactive)
C/C=C/c1ccc2c(c1)OCO2 | > 4 mM (inactive)
O=C(Cc1ccc(F)cc1)Nc1ncccn1 | > 4 mM (inactive)
C[C@@H](N)[C@@H](O)c1ccccc1 | > 4 mM (inactive)

Reference: PubChem BioAssay AID608 (Sanford-Burnham Center for Chemical Genomics, 2007)
